Measured values as given in patent US20090287072A1, “POLYMER COMPOSITIONS, COATINGS AND DEVICES, AND METHODS OF MAKING AND USING THE SAME” (THE REGENTS OF THE UNIVERSITY OF MICHIGAN, priority 2005, published 2009).

Legend:
[1] = Catalytic NO generation by ditelluride compounds via chemiluminescence NO analyzer (NOA); format: biochemical
Procedure: FIG. 19A also depicts other measurements of catalytic NO generation by ditelluride compounds. […] The rate of NO generation slowly decreases with time to reach a steady-state that lasts until all of the GSNO is consumed.

[2] = NO generation by diorgano ditelluride from GSNO and GSH monitored by NOA; format: biochemical; details: GSNO and GSH in PBS pH 7.4, EDTA, ambient temperature; FIG. 13

| SMILES | NO signal upon adding catalytic amounts ([1]; 2.5 μM catalyst, GSNO 25 μM, GSH 100 μM in PBS buffer, FIG. 19A) | RSNO decomposition to NO without RSH ([1]; absence of RSH, FIG. 19B) | NO generated relative to amount of catalyst used [2] |
| --- | --- | --- | --- |
| O=C(O)c1ccc([Te][Te]c2ccc(C(=O)O)s2)s1 [DTDTCA 2, 5,5′-ditelluro-2,2′-dithiophenecarboxylic acid] | relatively large signal appears quickly | decomposes RSNO to NO even in the absence of RSH | – |
| O=C(O)CCCCC[Te][Te]CCCCCC(=O)O [compound 2] | – | – | much more NO than the amount of diorgano ditelluride |
